Data taken from US20090069244A1, “Mutants of lactoferrin” (AM-Pharma B.V., priority 2007, published 2009).

Test system: Methicillin Resistant Staphylococcus aureus (MRSA), Escherichia coli and/or Candida albicans
Experiment: Minimal inhibitory concentration (MIC) assay, microdilution
Assay type: cell-based
Conditions: MIC not more than 1 dilution from the reference peptide (Pep001 or MD012) counts as equal activity
From the text: To compare antimicrobial activity of the mutants, the inventors made use of the minimal inhibitory concentration (MIC) assay, extensively described in the literature and which has become a world wide standardized test for, e.g., determining susceptibility of strains towards antibiotics (reference “National Committee for Clinical Laboratory Standards: Performance standards for antimicrobial susceptibility testing; fourteenth informational supplement. M100-S14, Volume 24, Wayne, Pa.; 2004.”). The MIC assay is a fast, reliable assay that is used throughout the world in medical microbiology divisions to test e.g., antibiotic response of clinical isolates to monitor antibiotic therapy. MIC values represent the lowest concentration of antibiotic or antifungal that inhibits >90% of growth of the micro-organism. In hospitals MIC values are also used to determine strength of antibiotic therapy where one of the pharmacokinetic parameters is expressed as “hours over MIC”. The inventors therefore feel that MIC values, in contrast to e.g., killing assays, more closely relate to clinical efficacy of the drug and predict more correctly the success of a drug in the clinic.
Antimicrobial properties of the different peptides against a gram negative bacteria (Escherichia coli ATCC 035), a gram positive bacteria (Methicillin Resistant Staphylococcus aureus (MRSA) ATCC 2141) both obtained from the American Type Culture Collection (ATCC, Manassas (VA), USA) and Yeast (Candia Albicans Y01-19; clinical isolate of LUMC, Leiden, the Netherlands) were used for the MIC determination.
Minimal inhibitory concentrations (MICs) were determined by microdilution method according to CLSI guidelines using RPMI1640 medium diluted 1:4 in […] sterile filtered MilliQ and an bacterial inoculum of 5×10^5 CFU/ml. Plates were read after 20-24 h incubation at 35° C. in ambient air. MICs were recorded as the lowest concentration that inhibited visible growth.
Both tables show the MIC values of the various peptides for Methicillin Resistant Staphylococcus aureus (MRSA), Escherichia coli and/or Candida albicans. […]

RRRRSWC [RRRRSWC (SEQ ID NO:142)]
antimicrobial activity (MIC) compared with the reference peptide: acceptable antimicrobial activity

RRRRQWC [RRRRQWC (SEQ ID NO:141)]
antimicrobial activity (MIC) compared with the reference peptide: acceptable antimicrobial activity

RRRRSVC [RRRRSVC (SEQ ID NO:143)]
antimicrobial activity (MIC) compared with the reference peptide: acceptable antimicrobial activity
